Results taken from paper PMC9492542, “Brain-restricted mTOR inhibition with binary pharmacology” (Nature, 2022).
Where “and” joins values, the source holds several entries; their conditions need not be identical. Equal entries are not always repeated.

Columns and labels:
FKBP12 = biological target: T1, FKBP12 (Homo sapiens, UniProt P62942); experiment: Competition fluorescence polarization assay with FITC-rapamycin tracer; format: binding
T1 construct: His-tag (HRV 3C cleavable) (cleaved yes); made in house; host or cells: Escherichia coli BL21(DE3)
T1 sequence (P62942 whole entry): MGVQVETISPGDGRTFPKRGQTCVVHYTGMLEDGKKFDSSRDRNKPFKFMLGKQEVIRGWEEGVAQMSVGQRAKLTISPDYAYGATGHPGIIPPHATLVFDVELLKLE

NFAT = NFAT activation assay (Jurkat-Lucia NFAT luciferase reporter, PMA/ionomycin); format: cell-based
Experimental: Jurkat-Lucia NFAT cells were resuspended to 2 × 10^6 cells per ml in fresh growth medium and dispensed in 96-well tissue culture plates (Corning 3904; 180 µl per well). DMSO solutions of test compounds at 100× the test concentrations were added and the cells were incubated for 4 h at 37 °C. A 10× stimulation solution containing phorbol myristate acetate (100 ng ml^–1) and ionomycin (10 µg ml^–1) were added to each well (20 µl per well) except for the negative control wells, which were supplemented with 20 µl medium. Cells were incubated at 37 °C for 12 h. Cells (20 µl per well) were transferred into a white opaque 96-well plate (Corning 3912). TECAN Spark 20M plate reader equipped with an auto-injection system was primed with Lucia luciferase substrate solution and set with the following parameters: 50 µl of injection volume, end-point measurement with a 4-s delay time and 0.1-s integration time. Luciferase activity was measured with the settings above and normalized to DMSO-treated, stimulated cells. Data were plotted in GraphPad Prism 9.0.

mTOR = experiment: Immunoblot analysis of mTOR signalling (p-S6, p-4EBP1) in MCF7 cells, incl. screen for blocking of rapamycin/RapaLink-1; settings: 10 nM RapaLink-1 + 10 µM blocker, immunoblot

For C=CC[C@@H]1/C=C(\C)C[C@H](C)C[C@H](OC)[C@H]2O[C@@](O)(C(=O)C(=O)N3CCCC[C@H]3C(=O)O[C@H](/C(C)=C/[C@@H]3CC[C@@H](O)[C@H](OC)C3)[C@H](C)[C@@H](O)CC1=O)[C@H](C)C[C@@H]2OC [FK506], the “fluorescence polarization (competition, raw)” value (from here on “fluorescence polarization”) (FKBP12; 0.0976562 nM compound) was 108, the “fluorescence polarization” value (FKBP12; 0.195312 nM compound) was 110 and 109 and the “fluorescence polarization” value (FKBP12; 0.390625 nM compound) was 108. The “fluorescence polarization” value (FKBP12; 0.78125 nM compound) was 107 and 103, the “fluorescence polarization” value (FKBP12; 1.5625 nM compound) was 104 and 103 and the “fluorescence polarization” value (FKBP12; 3.125 nM compound) was 92 and 96. The “fluorescence polarization” value (FKBP12; 6.25 nM compound) was 75 and 72, the “fluorescence polarization” value (FKBP12; 12.5 nM compound) was 66 and 60 and the “fluorescence polarization” value (FKBP12; 25 nM compound) was 57 and 55. The “fluorescence polarization” value (FKBP12; 50 nM compound) was 53 and 55, the “fluorescence polarization” value (FKBP12; 100 nM compound) was 46 and 51 and the “NFAT luciferase activity, normalized to DMSO-treated stimulated cells” value (“NFAT luciferase activity, normalized” below) (NFAT; 0.00512 nM) was 103.4 and 90.3 and 99.2. The “NFAT luciferase activity, normalized” value (NFAT; 0.0256 nM) was 93.6 and 87.2 and 91.4, the “NFAT luciferase activity, normalized” value (NFAT; 0.128 nM) was 35.5 and 35.2 and 38.5 and the “NFAT luciferase activity, normalized” value (NFAT; 0.64 nM) was 0.2. For the same compound, the “NFAT luciferase activity, normalized” value (NFAT; 16 nM) was 0.1, the “NFAT luciferase activity, normalized” value (NFAT; 80 nM) was 0.1 and 0.2 and the “NFAT luciferase activity, normalized” value (NFAT; 400 nM) was 0.1 and 0.2. The “NFAT luciferase activity, normalized” value (NFAT; 2000 nM) was 0.2, the “NFAT luciferase activity, normalized” value (NFAT; 10000 nM) was 0.2 and the IC50 (NFAT; Homo sapiens, Jurkat NFAT luciferase, PMA + ionomycin) was 0.094 ± 0.008 nM.
With CCON=C1C[C@H](O)[C@@H](C)[C@@H](/C(C)=C/[C@@H]2CC[C@@H](O)[C@H](OC)C2)OC(=O)[C@@H]2CCCCN2C(=O)C(=O)[C@]2(O)O[C@H]([C@@H](OC)C[C@@H](C)C/C(C)=C/[C@H]1CCCc1cccc[n+]1[O-])[C@@H](OC)C[C@H]2C [RapaBlock ethyl oxime] the Ki (FKBP12) was 360 nM, the “blocking of mTOR inhibition by RapaLink-1 in cells” value (mTOR) was “less potent at blocking RapaLink-1” and the “blocking of mTOR inhibition by RapaLink-1 in cells” value (mTOR; listed as RapaBlock-Oxime) was “much less effective at blocking the inhibition”.
